Experimental data from patent US7741493B2, “Heterocyclic compounds as P2X7 ion channel blockers” (Aventis Pharmaceuticals Inc., priority 2003, dated 2010).
Counter-ions that a name gives are not always drawn.

Each molecule was assayed against T1, P2X7 (Homo sapiens, UniProt Q99572) (assay: YO-PRO-1 dye uptake assay in U373 cells stably expressing P2X7). Conditions: IC50 (nM), dye uptake through P2X7, U373 cells, 300 μM BzATP, 5 μM YO-PRO-1, test compounds 30 nM to 3 μM.
T1 sequence (Q99572 1-595): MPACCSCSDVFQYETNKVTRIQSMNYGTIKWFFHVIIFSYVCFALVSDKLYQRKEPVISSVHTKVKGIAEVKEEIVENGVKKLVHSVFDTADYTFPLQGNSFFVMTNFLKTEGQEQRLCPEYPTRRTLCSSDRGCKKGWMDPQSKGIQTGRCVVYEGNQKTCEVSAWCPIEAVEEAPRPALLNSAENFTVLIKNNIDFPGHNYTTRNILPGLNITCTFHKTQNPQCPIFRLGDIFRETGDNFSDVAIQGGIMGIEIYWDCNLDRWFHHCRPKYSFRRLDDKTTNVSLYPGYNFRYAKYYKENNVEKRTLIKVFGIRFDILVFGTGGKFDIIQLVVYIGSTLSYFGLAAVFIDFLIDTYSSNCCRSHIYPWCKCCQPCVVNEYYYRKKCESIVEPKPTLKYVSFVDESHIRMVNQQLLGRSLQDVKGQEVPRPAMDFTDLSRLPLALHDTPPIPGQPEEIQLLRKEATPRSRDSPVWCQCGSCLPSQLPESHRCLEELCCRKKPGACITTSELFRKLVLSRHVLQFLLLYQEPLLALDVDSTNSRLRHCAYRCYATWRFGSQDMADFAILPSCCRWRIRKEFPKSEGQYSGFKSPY
Format: cell-based
Set-up: The complete open reading frame of human P2X7 was amplified from Incyte clone 148057; expressed in transfected cells
Outline: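 U373 cells stably expressing human P2X7 preincubated 20 min at 37° C. with compound (30 nM to 3 μM) in Mg/Ca-free HBSS. YO-PRO-1 (5 μM final) and BzATP (300 μM final) then added for 1.5 h at 37° C.; dye-uptake fluorescence compared with compound-free control.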

Structure (SMILES)	IC50 [nM]
c1ccc(CNCC2=N[C@@H](c3ccccc3)[C@@H](c3ccccc3)N2)cc1 [[(cis-4,5-Diphenyl-4,5-dihydro-1H-imidazol-2-yl)methyl]benzylamine ditrifluoroacetate]	318

Same assay, conditions: dye uptake through P2X7, U373 cells, 300 μM BzATP, 5 μM YO-PRO-1, test compounds 30 nM to 3 μM; read-out: IC50

Structure (SMILES)	IC50 [nM]
Fc1cccc(CNC2=N[C@@H](c3ccccc3)[C@@H](c3ccccc3)N2)c1 [(cis-4,5-Diphenyl-4,5-dihydro-1H-imidazol-2-yl)-(3-fluorobenzyl)amine hydrochloride]	89
Fc1ccc(CNC2=N[C@@H](c3ccccc3)[C@@H](c3ccccc3)N2)cc1 [(cis-4,5-Diphenyl-4,5-dihydro-1H-imidazol-2-yl)-(4-fluorobenzyl)amine hydrochloride]	96
c1ccc([C@H]2NC(NCC3CCCCC3)=N[C@H]2c2ccccc2)cc1 [(cis-4,5-Diphenyl-4,5-dihydro-1H-imidazol-2-yl)-(cyclohexylmethyl)amine hydrochloride]	124
CN(Cc1ccccc1)C1=N[C@@H](c2ccccc2)[C@@H](c2ccccc2)N1 [(cis-4,5-Diphenyl-4,5-dihydro-1H-imidazol-2-yl)-N-methylbenzylamine hydrochloride]	147
Fc1ccccc1CCNC1=N[C@@H](c2ccccc2)[C@@H](c2ccccc2)N1 [(cis-4,5-Diphenyl-4,5-dihydro-1H-imidazol-2-yl)-[2-(2-fluorophenyl)ethyl]amine hydrochloride]	87
Fc1ccc(CNC2=N[C@@H](c3ccccc3F)[C@@H](c3ccccc3F)N2)cc1 [(cis-4,5-bis-(2-Fluorophenyl)-4,5-dihydro-1H-imidazol-2-yl)-(4-fluorobenzyl)amine hydrochloride]	390
Fc1ccccc1[C@H]1NC(NCc2ccccc2)=N[C@H]1c1ccccc1F [(cis-4,5-bis-(2-Fluorophenyl)-4,5-dihydro-1H-imidazol-2-yl)-benzylamine hydrochloride]	531
Fc1cccc(CNC2=N[C@@H](c3ccccc3Br)[C@@H](c3ccccc3Br)N2)c1 [[cis-4,5-bis-(2-Bromophenyl)-4,5-dihydro-1H-imidazol-2-yl]-(3-fluorobenzyl)amine hydrochloride]	782
Fc1ccc(CNC2=N[C@@H](c3ccccc3Br)[C@@H](c3ccccc3Br)N2)cc1 [[cis-4,5-bis-(2-Bromophenyl)-4,5-dihydro-1H-imidazol-2-yl]-(4-fluorobenzyl)amine hydrochloride]	898
Fc1ccc(CNC2=N[C@@H](c3ccccc3Cl)[C@@H](c3ccccc3Cl)N2)cc1F [[cis-4,5-bis-(2-Chlorophenyl)-4,5-dihydro-1H-imidazol-2-yl]-(3,4-difluorobenzyl)-amine hydrochloride]	378
Fc1cccc(CNC2=N[C@@H](c3ccccc3Cl)[C@@H](c3ccccc3Cl)N2)c1 [[cis-4,5-bis-(2-Chlorophenyl)-4,5-dihydro-1H-imidazol-2-yl]-(3-fluorobenzyl)amine hydrochloride]	592
Fc1ccc(CNC2=N[C@@H](c3ccccc3Cl)[C@@H](c3ccccc3Cl)N2)cc1 [[cis-4,5-bis-(2-Chlorophenyl)-4,5-dihydro-1H-imidazol-2-yl]-(4-fluorobenzyl)amine hydrochloride]	624
Clc1ccccc1[C@H]1NC(NCc2ccccc2)=N[C@H]1c1ccccc1Cl [[cis-4,5-bis-(2-Chlorophenyl)-4,5-dihydro-1H-imidazol-2-yl]-benzylamine hydrochloride]	925
Fc1ccc(CNC2=N[C@@H](c3ccccc3F)[C@@H](c3ccccc3F)N2)cc1F [[cis-4,5-bis-(2-Fluorophenyl)-4,5-dihydro-1H-imidazol-2-yl]-(3,4-difluorobenzyl)-amine hydrochloride]	312
Cc1cccc(CNC2=N[C@@H](c3ccccc3F)[C@@H](c3ccccc3F)N2)c1 [[cis-4,5-bis-(2-Fluorophenyl)-4,5-dihydro-1H-imidazol-2-yl]-(3-methylbenzyl)amine hydrochloride]	379
Cc1ccccc1[C@H]1NC(NCc2ccc(F)c(F)c2)=N[C@H]1c1ccccc1C [[cis-4,5-bis-(2-Methylphenyl)-4,5-dihydro-1H-imidazol-2-yl]-(3,4-difluorobenzyl)-amine hydrochloride]	77
Cc1ccccc1[C@H]1NC(NCc2cccc(F)c2)=N[C@H]1c1ccccc1C [[cis-4,5-bis-(2-Methylphenyl)-4,5-dihydro-1H-imidazol-2-yl]-(3-fluorobenzyl)amine hydrochloride]	121

Structure (SMILES)	IC50 [nM]
Cc1ccccc1[C@H]1NC(NCc2ccc(F)cc2)=N[C@H]1c1ccccc1C [[cis-4,5-bis-(2-Methylphenyl)-4,5-dihydro-1H-imidazol-2-yl]-(4-fluorobenzyl)amine hydrochloride]	139
Cc1ccccc1[C@H]1NC(NCc2ccccc2)=N[C@H]1c1ccccc1C [[cis-4,5-bis-(2-Methylphenyl)-4,5-dihydro-1H-imidazol-2-yl]-benzylamine hydrochloride]	167
Fc1ccc(CNC2=N[C@@H](c3cccc(Cl)c3)[C@@H](c3cccc(Cl)c3)N2)cc1F [[cis-4,5-bis-(3-Chlorophenyl)-4,5-dihydro-1H-imidazol-2-yl]-(3,4-difluorobenzyl)-amine hydrochloride]	247
Fc1ccc(CNC2=N[C@@H](c3cccc(Cl)c3)[C@@H](c3cccc(Cl)c3)N2)cc1 [[cis-4,5-bis-(3-Chlorophenyl)-4,5-dihydro-1H-imidazol-2-yl]-(4-fluorobenzyl)amine hydrochloride]	318
Clc1cccc([C@H]2NC(NCc3ccccc3)=N[C@H]2c2cccc(Cl)c2)c1 [[cis-4,5-bis-(3-Chlorophenyl)-4,5-dihydro-1H-imidazol-2-yl]-benzylamine hydrochloride]	433
Fc1cccc([C@H]2NC(NCc3ccc(F)c(F)c3)=N[C@H]2c2cccc(F)c2)c1 [[cis-4,5-bis-(3-Fluorophenyl)-4,5-dihydro-1H-imidazol-2-yl]-(3,4-difluorobenzyl)-amine hydrochloride]	71
Fc1ccc(CNC2=N[C@@H](c3cccc(F)c3)[C@@H](c3cccc(F)c3)N2)cc1 [[cis-4,5-bis-(3-Fluorophenyl)-4,5-dihydro-1H-imidazol-2-yl]-(4-fluorobenzyl)amine hydrochloride]	71
Fc1cccc([C@H]2NC(NCc3ccccc3)=N[C@H]2c2cccc(F)c2)c1 [[cis-4,5-bis-(3-Fluorophenyl)-4,5-dihydro-1H-imidazol-2-yl]-benzylamine hydrochloride]	90
Cc1cccc([C@H]2NC(NCc3ccc(F)c(F)c3)=N[C@H]2c2cccc(C)c2)c1 [[cis-4,5-bis-(3-Methylphenyl)-4,5-dihydro-1H-imidazol-2-yl]-(3,4-difluorobenzyl)-amine hydrochloride]	118
Cc1cccc([C@H]2NC(NCc3cccc(F)c3)=N[C@H]2c2cccc(C)c2)c1 [[cis-4,5-bis-(3-Methylphenyl)-4,5-dihydro-1H-imidazol-2-yl]-(3-fluorobenzyl)amine hydrochloride]	121
Cc1cccc([C@H]2NC(NCc3ccc(F)cc3)=N[C@H]2c2cccc(C)c2)c1 [[cis-4,5-bis-(3-Methylphenyl)-4,5-dihydro-1H-imidazol-2-yl]-(4-fluorobenzyl)amine hydrochloride]	107
Cc1cccc([C@H]2NC(NCc3ccccc3)=N[C@H]2c2cccc(C)c2)c1 [[cis-4,5-bis-(3-Methylphenyl)-4,5-dihydro-1H-imidazol-2-yl]-benzylamine hydrochloride]	157
Fc1ccc(CNC2=N[C@@H](c3ccc(Cl)cc3)[C@@H](c3ccc(Cl)cc3)N2)cc1F [[cis-4,5-bis-(4-Chlorophenyl)-4,5-dihydro-1H-imidazol-2-yl]-(3,4-difluorobenzyl)-amine hydrochloride]	400
Clc1ccc([C@H]2NC(NCc3ccccc3)=N[C@H]2c2ccc(Cl)cc2)cc1 [[cis-4,5-bis-(4-Chlorophenyl)-4,5-dihydro-1H-imidazol-2-yl]-benzylamine hydrochloride]	404
Fc1ccc([C@H]2NC(NCc3ccccc3)=N[C@H]2c2ccc(F)cc2)cc1 [[cis-4,5-bis-(4-Fluorophenyl)-4,5-dihydro-1H-imidazol-2-yl]-benzylamine hydrochloride]	371
Cc1ccc([C@H]2NC(NCc3ccc(F)c(F)c3)=N[C@H]2c2ccc(C)cc2)cc1 [[cis-4,5-bis-(4-Methylphenyl)-4,5-dihydro-1H-imidazol-2-yl]-(3,4-difluorobenzyl)-amine hydrochloride]	150
Cc1ccc([C@H]2NC(NCc3cccc(F)c3)=N[C@H]2c2ccc(C)cc2)cc1 [[cis-4,5-bis-(4-Methylphenyl)-4,5-dihydro-1H-imidazol-2-yl]-(3-fluorobenzyl)amine hydrochloride]	134
